Reference: paper PMC4948680 (European journal of pharmaceutical sciences : official …, 2016)

Test: in vivo
Design: species or system Swiss albino mice
Conditions: mouse; for tissue uptake at 0.5 h / tissue uptake at 1 h / tissue uptake at 4 h / tissue uptake at 48 h / tissue uptake at 72 h / tissue uptake at 24 h: Swiss albino, iv, 10 pmol peptide, total radioactivity, %ID/g tissue
Protocol: Samples of blood and tissues of interest were excised, weighted and counted for radioactivity in the gamma counter (automated well-type multi-sample gamma counter; NaI(Tl) 3'' crystal, Canberra Packard Auto-Gamma 5000 series instrument). Data was calculated as percent injected dose per gramtissue (%ID/g) with the aid of suitable standards of the injected dose. Statistical analysis using the unpaired two-tailed Student's t-test was performed to compare values between A431-CCK2R(+) and A431-CCK2R(-) tumours, as well as kidney, stomach and A431-CCK2R(+) tumour values between 4 h control and gelofusine-treated animal groups; values P < 0.05 were considered statistically significant (Table 2). The pharmacokinetic profile was determined by fitting an exponential curve through the organ time-activity data according to the least-squares method. The number of exponentials in the fitted curve was analysed according to the […] Information Criterion (AICc). All fitting was performed with Graphpad Prism version 5.

## CSCC[C@H](NC(=O)[C@H](Cc1c[nH]c2ccccc12)NC(=O)CNC(=O)[C@H](Cc1ccc(O)cc1)NC(=O)[C@H](C)NC(=O)[C@@H](CCC(=O)O)NC(=O)[C@@H](CCC(=O)O)NC(=O)[C@@H](CCC(=O)O)NC(=O)[C@@H](CCC(=O)O)NC(=O)[C@@H](CCC(=O)O)NC(=O)[C@@H](CCC(=O)O)NC(=O)CN1CCN(CC(=O)O)CCN(CC(=O)O)CCN(CC(=O)O)CC1)C(=O)N[C@@H](CC(=O)O)C(=O)N[C@@H](Cc1ccccc1)C(N)=O [^111In-CP04, ^111In-DOTA-(DGlu)6-Ala-Tyr-Gly-Trp-Met-Asp-Phe-NH2, metal not drawn]
Blood
  tissue uptake at 0.5 h: 1.74 ± 0.22 %ID/g
  tissue uptake at 1 h: 0.51 ± 0.14 %ID/g
  tissue uptake at 4 h: 0.02 ± 0.01 %ID/g
  tissue uptake at 48 h: 0.01 ± 0.01 %ID/g
  tissue uptake at 72 h: 0.01 ± 0.01 %ID/g
Femur
  tissue uptake at 0.5 h: 4.62 ± 1.24 %ID/g
  tissue uptake at 1 h: 2.62 ± 0.42 %ID/g
  tissue uptake at 4 h: 0.96 ± 0.18 %ID/g
  tissue uptake at 24 h: 0.53 ± 0.04 %ID/g
  tissue uptake at 48 h: 0.55 ± 0.11 %ID/g
  tissue uptake at 72 h: 0.49 ± 0.06 %ID/g
Heart
  tissue uptake at 0.5 h: 0.7 ± 0.1 %ID/g
  tissue uptake at 4 h: 0.03 ± 0.01 %ID/g
  tissue uptake at 24 h: 0.02 ± 0.01 %ID/g
  tissue uptake at 48 h: 0.02 ± 0.01 %ID/g
  tissue uptake at 72 h: 0.03 ± 0.02 %ID/g
Intestines
  tissue uptake at 0.5 h: 0.82 ± 0.14 %ID/g
  tissue uptake at 1 h: 0.39 ± 0.12 %ID/g
  tissue uptake at 4 h: 1.05 ± 0.35 %ID/g
  tissue uptake at 48 h: 0.08 ± 0.02 %ID/g
  tissue uptake at 72 h: 0.09 ± 0.04 %ID/g
Kidneys
  tissue uptake at 0.5 h: 9.8 ± 2.07 %ID/g
  tissue uptake at 1 h: 8.84 ± 2.05 %ID/g
  tissue uptake at 4 h: 7.9 ± 1.98 %ID/g
  tissue uptake at 24 h: 3.61 ± 0.31 %ID/g
  tissue uptake at 48 h: 2.81 ± 0.63 %ID/g
  tissue uptake at 72 h: 2.62 ± 0.24 %ID/g
Liver
  tissue uptake at 0.5 h: 0.77 ± 0.11 %ID/g
  tissue uptake at 1 h: 0.32 ± 0.15 %ID/g
  tissue uptake at 24 h: 0.06 ± 0.01 %ID/g
  tissue uptake at 48 h: 0.06 %ID/g
  tissue uptake at 72 h: 0.05 ± 0.01 %ID/g
Lung
  tissue uptake at 0.5 h: 1.05 ± 0.1 %ID/g
  tissue uptake at 1 h: 0.4 ± 0.1 %ID/g
  tissue uptake at 4 h: 0.06 ± 0.01 %ID/g
  tissue uptake at 24 h: 0.03 ± 0.01 %ID/g
  tissue uptake at 48 h: 0.02 ± 0.01 %ID/g
  tissue uptake at 72 h: 0.03 ± 0.01 %ID/g
Muscle
  tissue uptake at 0.5 h: 0.59 ± 0.1 %ID/g
  tissue uptake at 4 h: 0.04 ± 0.02 %ID/g
  tissue uptake at 24 h: 0.02 ± 0.01 %ID/g
  tissue uptake at 48 h: 0.03 ± 0.02 %ID/g
  tissue uptake at 72 h: 0.03 ± 0.02 %ID/g
Pancreas
  tissue uptake at 0.5 h: 0.67 ± 0.08 %ID/g
  tissue uptake at 4 h: 0.1 ± 0.01 %ID/g
  tissue uptake at 24 h: 0.05 ± 0.01 %ID/g
  tissue uptake at 48 h: 0.04 ± 0.01 %ID/g
  tissue uptake at 72 h: 0.06 ± 0.03 %ID/g
Spleen
  tissue uptake at 0.5 h: 0.36 ± 0.04 %ID/g
  tissue uptake at 4 h: 0.05 ± 0.01 %ID/g
  tissue uptake at 24 h: 0.04 ± 0.01 %ID/g
  tissue uptake at 48 h: 0.03 ± 0.01 %ID/g
  tissue uptake at 72 h: 0.04 ± 0.01 %ID/g
Stomach
  tissue uptake at 0.5 h: 4.88 ± 0.85 %ID/g
  tissue uptake at 1 h: 2.99 ± 0.55 %ID/g
  tissue uptake at 4 h: 2.61 ± 0.82 %ID/g
  tissue uptake at 24 h: 1.48 ± 0.55 %ID/g
  tissue uptake at 48 h: 1.26 ± 0.26 %ID/g
  tissue uptake at 72 h: 0.92 ± 0.04 %ID/g
  gastrointestinal tract clearance: 2.5%
  total body clearance T1/2, fast component (90%): 17 min
  total body clearance, fraction of fast component: 90%
  total body clearance, fraction of slow component: 10%
